According to ChEMBL document CHEMBL2407054, “Synthesis and antimicrobial activity of imidazole and pyridine appended cholestane-based conjugates” (2013):
In brackets after ≈: the same amount, converted by molar mass.

How the values were obtained:
[1] = test system: Bacillus cereus; test: Antibacterial activity against Bacillus cereus ATCC 27348 by M07-A9 CLSI method; format: functional
[2] = test system: Staphylococcus aureus; test: Antibacterial activity against Staphylococcus aureus Giorgio by M07-A9 CLSI method; format: functional
[3] = test system: Salmonella typhimurium; test: Antibacterial activity against Salmonella typhimurium ATCC 13311 by M07-A9 CLSI method; format: functional, Salmonella enterica subsp. enterica serovar Typhimurium; conditions: Salmonella enterica
[4] = test system: Staphylococcus aureus; test: Antibacterial activity against Staphylococcus aureus 241 by M07-A9 CLSI method; format: functional
[5] = test system: Bacillus subtilis; test: Antibacterial activity against Bacillus subtilis ATCC 6633 by M07-A9 CLSI method; format: functional
[6] = test system: Proteus vulgaris; test: Antibacterial activity against Proteus vulgaris 6059 by M07-A9 CLSI method; format: functional
[7] = test system: Staphylococcus epidermidis; test: Antibacterial activity against Staphylococcus epidermidis 887E by M07-A9 CLSI method; format: functional
[8] = test system: Enterococcus faecalis; test: Antibacterial activity against Enterococcus faecalis ATCC 29212 by M07-A9 CLSI method; format: functional
[9] = test system: Bacillus licheniformis; test: Antibacterial activity against Bacillus licheniformis EMR by M07-A9 CLSI method; format: functional
[10] = test system: Escherichia coli; test: Antibacterial activity against Escherichia coli ATCC 25922 by M07-A9 CLSI method; format: functional
[11] = test system: Staphylococcus aureus; test: Antibacterial activity against Staphylococcus aureus ATCC 6538P by M07-A9 CLSI method; format: functional
[12] = test system: Klebsiella pneumoniae; test: Antibacterial activity against Klebsiella pneumoniae 2011E by M07-A9 CLSI method; format: functional
[13] = test system: Staphylococcus aureus; test: Antibacterial activity against Staphylococcus aureus ATCC 25923 by M07-A9 CLSI method; format: functional
[14] = test system: Pseudomonas aeruginosa; test: Antibacterial activity against Pseudomonas aeruginosa 6065Y by M07-A9 CLSI method; format: functional
[15] = test system: Kocuria rhizophila; test: Antibacterial activity against Micrococcus luteus ATCC 9341 by M07-A9 CLSI method; format: functional
[16] = test system: Staphylococcus aureus; test: Antibacterial activity against Staphylococcus aureus 77 by M07-A9 CLSI method; format: functional
[17] = test system: Klebsiella aerogenes; test: Antibacterial activity against Klebsiella aerogenes (SHV-1) 1976E by M07-A9 CLSI method; format: functional

Structure (SMILES)	MIC [1]	MIC [2]	MIC [3]	MIC [4]	MIC [5]	MIC [6]	MIC [7]	MIC [8]	MIC [9]	MIC [10]	MIC [11]	MIC [12]	MIC [13]	MIC [14]	MIC [15]	MIC [16]	MIC [17]
CC(C)CCC[C@@H](C)[C@H]1CC[C@H]2[C@@H]3C(=O)C[C@H]4C[C@H](NCCn5ccnc5)CC[C@]4(C)[C@H]3CC[C@]12C	32 µg/mL (≈ 64.5 µM)	8 µg/mL (≈ 16.1 µM)	> 32 µg/mL	16 µg/mL (≈ 32.3 µM)	32 µg/mL (≈ 64.5 µM)	> 32 µg/mL	16 µg/mL (≈ 32.3 µM)	8 µg/mL (≈ 16.1 µM)	32 µg/mL (≈ 64.5 µM)	> 32 µg/mL	8 µg/mL (≈ 16.1 µM)	> 32 µg/mL	8 µg/mL (≈ 16.1 µM)	> 32 µg/mL	8 µg/mL (≈ 16.1 µM)	> 32 µg/mL	> 32 µg/mL
CC(C)CCC[C@@H](C)[C@H]1CC[C@H]2[C@@H]3C(=O)C[C@H]4C[C@H](NCCc5ccccn5)CC[C@]4(C)[C@H]3CC[C@]12C	> 32 µg/mL	8 µg/mL (≈ 15.8 µM)	> 32 µg/mL	> 32 µg/mL	32 µg/mL (≈ 63.1 µM)	> 32 µg/mL	16 µg/mL (≈ 31.6 µM)	16 µg/mL (≈ 31.6 µM)	32 µg/mL (≈ 63.1 µM)	> 32 µg/mL	8 µg/mL (≈ 15.8 µM)	> 32 µg/mL	8 µg/mL (≈ 15.8 µM)	> 32 µg/mL	32 µg/mL (≈ 63.1 µM)	32 µg/mL (≈ 63.1 µM)	> 32 µg/mL
CC(C)CCC[C@@H](C)[C@H]1CC[C@H]2[C@@H]3C(=O)C[C@H]4C[C@H](NCCc5cnc[nH]5)CC[C@]4(C)[C@H]3CC[C@]12C	32 µg/mL (≈ 64.5 µM)	16 µg/mL (≈ 32.3 µM)	> 32 µg/mL	32 µg/mL (≈ 64.5 µM)	32 µg/mL (≈ 64.5 µM)	> 32 µg/mL	16 µg/mL (≈ 32.3 µM)	16 µg/mL (≈ 32.3 µM)	32 µg/mL (≈ 64.5 µM)	> 32 µg/mL	8 µg/mL (≈ 16.1 µM)	> 32 µg/mL	16 µg/mL (≈ 32.3 µM)	> 32 µg/mL	16 µg/mL (≈ 32.3 µM)	16 µg/mL (≈ 32.3 µM)	> 32 µg/mL
CC(C)CCC[C@@H](C)[C@H]1CC[C@H]2[C@@H]3[C@H](NCc4ccccn4)C[C@H]4C[C@H](NCc5ccccn5)CC[C@]4(C)[C@H]3CC[C@]12C	8 µg/mL (≈ 13.7 µM)	2 µg/mL (≈ 3.42 µM)	> 32 µg/mL	2 µg/mL (≈ 3.42 µM)	2 µg/mL (≈ 3.42 µM)	> 32 µg/mL	1 µg/mL (≈ 1.71 µM)	4 µg/mL (≈ 6.84 µM)	2 µg/mL (≈ 3.42 µM)	> 32 µg/mL	2 µg/mL (≈ 3.42 µM)	> 32 µg/mL	2 µg/mL (≈ 3.42 µM)	> 32 µg/mL	2 µg/mL (≈ 3.42 µM)	2 µg/mL (≈ 3.42 µM)	> 32 µg/mL
CC(C)CCC[C@@H](C)[C@H]1CC[C@H]2[C@@H]3[C@H](NCCc4cnc[nH]4)C[C@H]4C[C@H](NCCc5cnc[nH]5)CC[C@]4(C)[C@H]3CC[C@]12C [3ALPHA,7ALPHA-BIS[2-(5-IMIDAZOLYL)ETHYL]AMINO-5ALPHA-CHOLESTANE]	32 µg/mL (≈ 54.2 µM)	8 µg/mL (≈ 13.5 µM)	> 32 µg/mL	8 µg/mL (≈ 13.5 µM)	> 32 µg/mL	> 32 µg/mL	8 µg/mL (≈ 13.5 µM)	8 µg/mL (≈ 13.5 µM)	> 32 µg/mL	> 32 µg/mL	4 µg/mL (≈ 6.77 µM)	> 32 µg/mL	8 µg/mL (≈ 13.5 µM)	> 32 µg/mL	16 µg/mL (≈ 27.1 µM)	8 µg/mL (≈ 13.5 µM)	> 32 µg/mL
CC(C)CCC[C@@H](C)[C@H]1CC[C@H]2[C@@H]3[C@H](NCCc4ccccn4)C[C@H]4C[C@H](NCCc5ccccn5)CC[C@]4(C)[C@H]3CC[C@]12C	32 µg/mL (≈ 52.2 µM)	8 µg/mL (≈ 13.1 µM)	> 32 µg/mL	8 µg/mL (≈ 13.1 µM)	8 µg/mL (≈ 13.1 µM)	> 32 µg/mL	8 µg/mL (≈ 13.1 µM)	16 µg/mL (≈ 26.1 µM)	8 µg/mL (≈ 13.1 µM)	> 32 µg/mL	8 µg/mL (≈ 13.1 µM)	> 32 µg/mL	8 µg/mL (≈ 13.1 µM)	> 32 µg/mL	8 µg/mL (≈ 13.1 µM)	16 µg/mL (≈ 26.1 µM)	> 32 µg/mL
CC(C)CCC[C@@H](C)[C@H]1CC[C@H]2[C@@H]3[C@H](NCCn4ccnc4)C[C@H]4C[C@H](NCCn5ccnc5)CC[C@]4(C)[C@H]3CC[C@]12C	16 µg/mL (≈ 27.1 µM)	4 µg/mL (≈ 6.77 µM)	> 32 µg/mL	16 µg/mL (≈ 27.1 µM)	8 µg/mL (≈ 13.5 µM)	> 32 µg/mL	16 µg/mL (≈ 27.1 µM)	16 µg/mL (≈ 27.1 µM)	32 µg/mL (≈ 54.2 µM)	> 32 µg/mL	4 µg/mL (≈ 6.77 µM)	> 32 µg/mL	8 µg/mL (≈ 13.5 µM)	> 32 µg/mL	4 µg/mL (≈ 6.77 µM)	4 µg/mL (≈ 6.77 µM)	> 32 µg/mL
CC(C)CCC[C@@H](C)[C@H]1CC[C@H]2[C@@H]3[C@H](NCCCn4ccnc4)C[C@H]4C[C@H](NCCCn5ccnc5)CC[C@]4(C)[C@H]3CC[C@]12C	8 µg/mL (≈ 12.9 µM)	4 µg/mL (≈ 6.46 µM)	> 32 µg/mL	4 µg/mL (≈ 6.46 µM)	4 µg/mL (≈ 6.46 µM)	> 32 µg/mL	4 µg/mL (≈ 6.46 µM)	4 µg/mL (≈ 6.46 µM)	4 µg/mL (≈ 6.46 µM)	> 32 µg/mL	2 µg/mL (≈ 3.23 µM)	> 32 µg/mL	2 µg/mL (≈ 3.23 µM)	> 32 µg/mL	4 µg/mL (≈ 6.46 µM)	4 µg/mL (≈ 6.46 µM)	> 32 µg/mL
CC(C)CCC[C@@H](C)[C@H]1CC[C@H]2[C@@H]3C(=O)C[C@H]4C[C@H](NCCCn5ccnc5)CC[C@]4(C)[C@H]3CC[C@]12C	16 µg/mL (≈ 31.4 µM)	8 µg/mL (≈ 15.7 µM)	> 32 µg/mL	32 µg/mL (≈ 62.8 µM)	8 µg/mL (≈ 15.7 µM)	> 32 µg/mL	16 µg/mL (≈ 31.4 µM)	32 µg/mL (≈ 62.8 µM)	32 µg/mL (≈ 62.8 µM)	> 32 µg/mL	8 µg/mL (≈ 15.7 µM)	> 32 µg/mL	8 µg/mL (≈ 15.7 µM)	> 32 µg/mL	8 µg/mL (≈ 15.7 µM)	8 µg/mL (≈ 15.7 µM)	> 32 µg/mL
CC(C)CCC[C@@H](C)[C@H]1CC[C@H]2[C@@H]3C(=O)C[C@H]4C[C@H](NCc5ccccn5)CC[C@]4(C)[C@H]3CC[C@]12C	16 µg/mL (≈ 32.5 µM)	4 µg/mL (≈ 8.12 µM)	> 32 µg/mL	32 µg/mL (≈ 64.9 µM)	4 µg/mL (≈ 8.12 µM)	> 32 µg/mL	4 µg/mL (≈ 8.12 µM)	8 µg/mL (≈ 16.2 µM)	32 µg/mL (≈ 64.9 µM)	> 32 µg/mL	2 µg/mL (≈ 4.06 µM)	> 32 µg/mL	4 µg/mL (≈ 8.12 µM)	> 32 µg/mL	8 µg/mL (≈ 16.2 µM)	32 µg/mL (≈ 64.9 µM)	> 32 µg/mL
CN[C@H](CC(C)C)C(=O)N[C@H]1C(=O)N[C@@H](CC(N)=O)C(=O)N[C@H]2C(=O)N[C@H]3C(=O)N[C@H](C(=O)N[C@H](C(=O)O)c4cc(O)cc(O)c4-c4cc3ccc4O)[C@H](O)c3ccc(c(Cl)c3)Oc3cc2cc(c3O[C@@H]2O[C@H](CO)[C@@H](O)[C@H](O)[C@H]2O[C@H]2C[C@](C)(N)[C@H](O)[C@H](C)O2)Oc2ccc(cc2Cl)[C@H]1O [VANCOMYCIN]	> 32 µg/mL	–	> 32 µg/mL	–	2 µg/mL (≈ 1.38 µM)	> 32 µg/mL	–	2 µg/mL (≈ 1.38 µM)	> 32 µg/mL	> 32 µg/mL	–	> 32 µg/mL	–	> 32 µg/mL	1 µg/mL (≈ 0.69 µM)	–	> 32 µg/mL
